According to patent publication US5219825A, “Synergistic herbicidal compositions comprising herbicides which generate toxic oxygen radicals and chelating agents which inhibit their detoxification” (Yeda Research and Development Co., Ltd., priority 1986, dated 1993):

Columns and labels:
[1] = tested on: Conyza bonariensis paraquat sensitive biotype; test: Phytotoxicity measured as 14CO2 fixation 24 h after spraying; assay type: in vivo; settings: for % photosynthesis inhibition: sensitive biotype
Protocol: (§1) Seeds of two biotypes of Conyza bonariensis (L.) Cronq. (synonym C. linifolia) were obtained from Egypt. The paraquat sensitive biotype was gathered near Alexendria and seeds of the resistant type from the Tahrir irrigation district. They were obtained from Dr. Martin Parham in England. Seeds were germinated in a growth room with a 14 h light period at 25° C. Plants were transferred out of doors 24 h before being sprayed. The phytotoxicity of three herbicides representative of the three different modes of generating active oxygen species known at present. Commercial paraquat (Gramoxone-ICI Plant Protection Ltd) was formulated with 0.1% (w/v) Tween-20 (a non-ionic surfactant) for spraying. The response to the range of 10^-5 M to 10^-2 M paraquat was measured by spraying two plants per concentration to run-off in the early morning. All plants were exposed to sunlight for at least 13 h (1300 μE.m^-2s^-1 photosynthetically active radiation (PAR) at mid day). Commercial acifluorfen (Blazer, Rohm, and Hass, Philadelphia, Pa., USA) to which was added 0.25% Tween-20 was sprayed to run-off. The response to spraying was measured as with paraquat 24 h after spraying. Commercial atrazine (Atranex 50 WP-Agan) was sprayed at various rates in 0.25% Tween 20 to run off. Fully expanded, 8 to 10 cm long leaves from plants in the rosette stage were used in all experiments. Phytotoxicity of acifluorfen and paraquat was measured as CO2 fixation 24 h later as follows: Detached leaves were placed on wet filter paper in a sealed chamber with 5μ Ci^14 C-sodium bicarbonate. Tartaric acid was remotely dripped on the sodium bicarbonate to release ^14 CO2. Leaves were illuminated with […] (PAR) for 30 min. Eighty percent acetone was added and the mixture put under strong light to photobleach pigments and evaporate the acetone. A scintillation mixture of Lumax:xylene (45:55) was added to the leaves and remaining water. The samples were counted and the data expressed as DPM.cm^-2. Area was measured with a planimeter from photocopies of the leaves made prior to photosynthesis measurements. Phytotoxicity of atrazine was measured as the elevated level of malonyldialdehyde in the tissue. Malonyldialdehyde (as measured with thiobarbituric acid according to Dodge and Gillham (Asp. Appl. Biol 11 97 (1986)) is a measurement of lipoxidation of unsaturated fatty acids, and provides an excellent estimation of damage by active oxygen species.

[2] = tested on: Conyza bonariensis paraquat tolerant biotype; test: as above; assay type: in vivo; settings: for % photosynthesis inhibition: tolerant biotype
Protocol: as §1

[3] = tested on: superoxide dismutase extracted from chloroplasts of Conyza bonariensis biotype requiring high levels of oxidant herbicide; test: Inhibition of superoxide dismutase activity on gel; assay type: biochemical; settings: gel soaked with 0.2% diethyldithiocarbamate
Protocol: (§2) Based on preliminary evidence that there was no difference in superoxides dismutase activity in whole leaves of these two biotypes and our own findings we assayed the levels of the dismutating enzymes in chloroplast extracts. The oxidant producing herbicides are effective in field conditions only in the light. […] This justifies assay of these enzymes in chloroplasts. Intact chloroplasts were isolated according to the method of Slovacek and Hind (Plant Physio. 60, 538 (1977)) except that 50 mM 2-(N-morpholino)ethanesulfonic acid buffer was used instead of the pyrophosphate buffer originally used in the chloroplast isolation medium. […] Chlorophyll content was measured in 80% acetone according to Arnon (Plant Physiol. 24 1 […]). Intactness of chloroplast was measured by means of ribulose-bis-phosphate-carboxylase activity in the chloroplast fraction supernatant according to Bjorkman (Physiol. Plant 21 1, (1968)), and proteins by the method of Bradford (Analyt. Biochem. 72 248 (1976)). […] We developed a technique to quantify superoxide dismutase by generating a standard curve by running different levels of known superoxide dismutase (ex bovine blood, Sigma) on the same gel. […] The gels were scanned in a Beckman DU-8 spectrophotometer, the peak areas were measured and related to the superoxide dismutase standard curve which was linear up to 0.2 enzyme units. […]

[4] = tested on: superoxide dismutase extracted from chloroplasts of Conyza bonariensis biotype requiring low levels of oxidant herbicide; test: Inhibition of superoxide dismutase activity on gel; assay type: biochemical; settings: gel soaked with 0.2% diethyldithiocarbamate
Protocol: as §2

[5] = tested on: Conyza bonariensis low herbicide requiring biotype; test: Photosynthesis (14CO2 fixation) of leaf discs removed 5 h after spray treatment; assay type: in vivo; settings: foliar, acifluorfen 0 μM, DDC 0.5% alone, leaf discs removed 5 h after treatment, untreated control = 100
Protocol: Similarly, both the paraquat resistant and sensitive biotypes of Conyza bonariensis were treated with two other oxidant generating herbicides. Atrazine (of the triazine group) is the most widely used oxidant generating herbicides in agriculture. We used various dilutions of a commercial wettable powder (Atranex 50WP-Agan Chemicals) to which we added 0.5% DDC. The effects were scored 24 h later. […] We also tested to see whether acifluorfen, a nitro diphenyl ether herbicide would be synergized. It is generally agreed that light and oxygen are required for its action via oxidant damage. We sprayed a commercial formulation of acifluorfen (Blazer, Rohm and Haas) to which were added 0.25% Tween-20 detergent, with and without DDC. The effects were scored 24 h later.
^b photosynthesis (^14 CO2 fixation) was used as an
additional measurement of phytotoxicity. Leaf discs were removed 5 h afte
treatment for measurement

[6] = herbicide molar conc. 3 × 10^-4
[7] = herbicide molar conc. 3.2 × 10^-5

Q: Which results are given for `C[n+]1ccc(-c2cc[n+](C)cc2)cc1` [paraquat, 1,1'-dimethyl-4-4'bipyridium ion]?
A: IC100 ([1]; Conyza bonariensis, 24 h, wild biotype, read-out: concentration at which CO2 assimilation ceased): 10 µM; % photosynthesis inhibition [1, 6]: 100%; % photosynthesis inhibition [1, 7]: 100%; % photosynthesis inhibition ([1]; herbicide molar conc. 10^-3): 100%; % photosynthesis inhibition ([1]; herbicide molar conc. 10^-4): 100%; % photosynthesis inhibition ([1]; herbicide molar conc. 10^-5, spray to run-off): 95%; IC100 ([2]; Conyza bonariensis, 24 h, resistant biotype, read-out: concentration at which CO2 assimilation ceased): 1000 µM; % photosynthesis inhibition ([2]; herbicide molar conc. 3 × 10^-3): 100%; % photosynthesis inhibition [2, 6]: 48%; % photosynthesis inhibition [2, 7]: 0%; % photosynthesis inhibition ([2]; herbicide molar conc. 10^-3): 97%; % photosynthesis inhibition ([2]; herbicide molar conc. 10^-4): 0%; % photosynthesis inhibition ([2]; herbicide molar conc. 10^-5): 0%

Q: With `CCN(CC)C(=S)[S-].[Na+]` [DDC, Sodium diethyldithiocarbamate] as the molecule, how does the “% inhibition of activity” value [3] read?
A: 100%

Q: And the “% inhibition of activity” value [4]?
A: 100%

Q: What about the activity at 0.5 % [5] of the same molecule?
A: 92%
